Patent US20260035365A1, “1H-PYRROLO[3,2-B]PYRIDINE DERIVATIVES AS IRREVERSIBLE INHIBITORS OF MUTANT EGFR FOR THE TREATMENT OF CANCER” (Bayer Aktiengesellschaft, priority 2022, published 2026)

Assays:
[1] = target: mutEGFR (D770_N771insNPG, T790); experiment: mutEGFR (D770_N771insNPG, T790) kinase assay; assay type: biochemical, human
[2] = system: BA/F3 (insSVD) cells; experiment: Ba/F3 cell survival assay (Cell Titer-Glo), EGFR-insSVD; assay type: cell-based; settings: Mus musculus, BaF3, 48 h, without IL-3, with EGF
Summary of the method: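 Ba/F3 cells stably expressing EGFR-insSVD or insSVD T790M via retrovirus (puromycin-selected), switched from IL-3 to 10 ng/mL EGF for 2 days, then plated at 4000 cells/well. Compound added by 100 nL pin transfer; 48 h at 37° C. Viability by CellTiter-Glo luminescence.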

[3] = target: mutEGFR (D770_N771insSVD) (Homo sapiens, UniProt P00533, INS767SVD); experiment: Exon20-mutant-EGFR (D770_N771insSVD) TR-FRET kinase assay; assay type: biochemical; settings: 2 mM ATP, 15 min preincubation
Summary of the method: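 GST-fused human EGFR fragment R669-A1210 carrying the SVD insertion, Sf9-expressed, typically 15 pg/μl, was preincubated with compound for 15 min at 22° C in pH 7.0 Hepes/MgCl2 buffer. Phosphorylation was read by HTRF (665/620 nm ratio), normalised to no-inhibitor and no-enzyme controls.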

mutEGFR (D770_N771insNPG, T790), sequence (P00533 with tags, fused parts or gaps INS770NPG limits assumed): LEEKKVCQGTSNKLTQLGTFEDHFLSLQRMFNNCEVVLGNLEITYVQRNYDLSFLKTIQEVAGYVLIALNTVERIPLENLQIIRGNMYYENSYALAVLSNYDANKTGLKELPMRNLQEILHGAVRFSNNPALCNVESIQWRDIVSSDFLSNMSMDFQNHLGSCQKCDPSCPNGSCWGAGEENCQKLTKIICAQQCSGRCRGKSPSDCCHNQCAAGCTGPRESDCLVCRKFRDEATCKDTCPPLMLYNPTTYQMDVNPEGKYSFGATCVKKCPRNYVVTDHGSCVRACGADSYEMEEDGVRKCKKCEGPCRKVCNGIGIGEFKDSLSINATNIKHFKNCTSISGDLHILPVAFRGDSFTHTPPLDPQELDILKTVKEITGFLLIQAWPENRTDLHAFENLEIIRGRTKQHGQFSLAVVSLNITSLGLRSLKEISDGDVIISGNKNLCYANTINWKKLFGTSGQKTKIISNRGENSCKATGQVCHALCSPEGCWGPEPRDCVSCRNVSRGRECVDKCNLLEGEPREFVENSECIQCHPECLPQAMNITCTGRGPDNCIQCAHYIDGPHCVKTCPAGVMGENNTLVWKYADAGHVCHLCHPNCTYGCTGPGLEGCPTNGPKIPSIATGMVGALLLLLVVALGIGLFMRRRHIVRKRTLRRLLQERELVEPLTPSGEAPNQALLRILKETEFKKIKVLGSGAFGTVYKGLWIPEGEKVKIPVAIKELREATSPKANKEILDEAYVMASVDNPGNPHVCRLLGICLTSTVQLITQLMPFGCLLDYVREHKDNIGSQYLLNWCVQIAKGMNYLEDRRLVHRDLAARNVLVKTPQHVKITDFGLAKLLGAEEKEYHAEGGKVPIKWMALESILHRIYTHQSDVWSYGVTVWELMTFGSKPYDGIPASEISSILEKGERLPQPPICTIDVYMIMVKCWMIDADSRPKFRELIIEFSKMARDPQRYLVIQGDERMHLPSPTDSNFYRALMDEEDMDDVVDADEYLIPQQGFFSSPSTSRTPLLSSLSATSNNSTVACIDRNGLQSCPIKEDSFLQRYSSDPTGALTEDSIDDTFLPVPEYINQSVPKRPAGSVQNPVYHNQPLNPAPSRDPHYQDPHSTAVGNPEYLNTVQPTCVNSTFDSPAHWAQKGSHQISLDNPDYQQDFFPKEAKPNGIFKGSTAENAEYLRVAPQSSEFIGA
mutEGFR (D770_N771insSVD), sequence (P00533 with tags, fused parts or gaps INS767SVD limits assumed): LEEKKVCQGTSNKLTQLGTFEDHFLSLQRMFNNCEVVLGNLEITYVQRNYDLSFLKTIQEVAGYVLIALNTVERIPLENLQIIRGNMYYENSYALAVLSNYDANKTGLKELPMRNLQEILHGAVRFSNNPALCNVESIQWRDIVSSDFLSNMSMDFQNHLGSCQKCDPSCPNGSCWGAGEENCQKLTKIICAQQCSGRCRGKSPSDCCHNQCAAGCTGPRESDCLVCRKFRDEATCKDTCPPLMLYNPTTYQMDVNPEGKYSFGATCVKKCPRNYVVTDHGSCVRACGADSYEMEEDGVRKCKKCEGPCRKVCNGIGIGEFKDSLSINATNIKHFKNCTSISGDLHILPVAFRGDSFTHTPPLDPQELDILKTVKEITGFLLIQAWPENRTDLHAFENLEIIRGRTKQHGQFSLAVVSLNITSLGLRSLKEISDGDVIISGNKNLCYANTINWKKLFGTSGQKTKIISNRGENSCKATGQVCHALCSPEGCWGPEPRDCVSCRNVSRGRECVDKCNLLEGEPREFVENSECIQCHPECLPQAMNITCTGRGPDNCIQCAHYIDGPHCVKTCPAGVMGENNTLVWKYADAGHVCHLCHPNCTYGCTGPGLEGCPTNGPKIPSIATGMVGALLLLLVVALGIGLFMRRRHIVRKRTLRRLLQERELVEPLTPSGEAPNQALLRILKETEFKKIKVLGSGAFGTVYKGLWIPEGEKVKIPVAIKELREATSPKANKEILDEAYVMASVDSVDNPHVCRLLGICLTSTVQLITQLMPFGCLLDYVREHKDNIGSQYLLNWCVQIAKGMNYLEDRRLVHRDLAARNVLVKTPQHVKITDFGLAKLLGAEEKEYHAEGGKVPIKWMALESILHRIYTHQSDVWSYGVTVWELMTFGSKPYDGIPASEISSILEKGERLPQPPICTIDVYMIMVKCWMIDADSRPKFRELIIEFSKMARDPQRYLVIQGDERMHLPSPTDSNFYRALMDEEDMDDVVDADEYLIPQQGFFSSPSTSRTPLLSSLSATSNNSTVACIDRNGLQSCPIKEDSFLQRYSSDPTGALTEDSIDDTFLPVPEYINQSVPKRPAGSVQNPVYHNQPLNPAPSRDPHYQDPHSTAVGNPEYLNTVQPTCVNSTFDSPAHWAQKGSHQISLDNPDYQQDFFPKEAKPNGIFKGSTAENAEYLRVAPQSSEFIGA

## C=CS(=O)(=O)N(C)CCOc1cnccc1-c1[nH]c2cccnc2c1-c1cc(Cl)ccc1F [Example 60, N-[2-({4-[3-(5-chloro-2-fluorophenyl)-1H-pyrrolo[3,2-b]pyridin-2-yl]pyridin-3-yl}oxy)ethyl]-N-methylethenesulfonamide]
[1]
  IC50: 2.02 nM
[2]
  IC50: 154 nM
[3]
  IC50: 0.809 nM

## C=CS(=O)(=O)N(C)CCOc1cnccc1-c1[nH]c2cccnc2c1-c1cc(F)ccc1F [Example 61, N-[2-({4-[3-(2,5-difluorophenyl)-1H-pyrrolo[3,2-b]pyridin-2-yl]pyridin-3-yl}oxy)ethyl]-N-methylethenesulfonamide]
[1]
  IC50: 2.82 nM
[2]
  IC50: 120 nM
[3]
  IC50: 0.872 nM

## C=CS(=O)(=O)N(C)CCOc1cnccc1-c1[nH]c2cccnc2c1-c1ccc2ccsc2c1 [Example 62, N-[2-({4-[3-(1-benzothiophen-6-yl)-1H-pyrrolo[3,2-b]pyridin-2-yl]pyridin-3-yl}oxy)ethyl]-N-methylethenesulfonamide]
[1]
  IC50: 3.3 nM
[2]
  IC50: 326 nM
[3]
  IC50: 1.14 nM

## C=CS(=O)(=O)N(C)CCOc1cnccc1-c1[nH]c2cccnc2c1-c1cccc(CC)c1 [Example 63, N-[2-({4-[3-(3-ethylphenyl)-1H-pyrrolo[3,2-b]pyridin-2-yl]pyridin-3-yl}oxy)ethyl]-N-methylethenesulfonamide]
[1]
  IC50: 5.88 nM
[2]
  IC50: 455 nM
[3]
  IC50: 1.44 nM

## C=CS(=O)(=O)N(C)CCOc1cnccc1-c1[nH]c2cccnc2c1-c1cc(C)ccc1F [Example 64, N-[2-({4-[3-(2-fluoro-5-methylphenyl)-1H-pyrrolo[3,2-b]pyridin-2-yl]pyridin-3-yl}oxy)ethyl]-N-methylethenesulfonamide]
[1]
  IC50: 2.21 nM
[2]
  IC50: 92.9 nM
[3]
  IC50: 1.47 nM

## C=CS(=O)(=O)N(C)CCOc1cnccc1-c1[nH]c2cccnc2c1-c1cc(C)cc(F)c1 [Example 65, N-[2-({4-[3-(3-fluoro-5-methylphenyl)-1H-pyrrolo[3,2-b]pyridin-2-yl]pyridin-3-yl}oxy)ethyl]-N-methylethenesulfonamide]
[1]
  IC50: 7.22 nM
[2]
  IC50: 267 nM
[3]
  IC50: 2.48 nM

## C=CS(=O)(=O)N(C)CCOc1cnccc1-c1[nH]c2cccnc2c1-c1cccc(C(F)(F)F)c1 [Example 66, N-methyl-N-{2-[(4-{3-[3-(trifluoromethyl)phenyl]-1H-pyrrolo[3,2-b]pyridin-2-yl}pyridin-3-yl)oxy]ethyl}ethenesulfonamide]
[1]
  IC50: 6.66 nM
[2]
  IC50: 421 nM
[3]
  IC50: 2.61 nM

## C=CS(=O)(=O)N(C)CCOc1cnccc1-c1[nH]c2cccnc2c1-c1cc(CC)ccc1F [Example 67, N-[2-({4-[3-(5-ethyl-2-fluorophenyl)-1H-pyrrolo[3,2-b]pyridin-2-yl]pyridin-3-yl}oxy)ethyl]-N-methylethenesulfonamide]
[1]
  IC50: 14.6 nM
[2]
  IC50: 418 nM
[3]
  IC50: 3.01 nM

## C=CS(=O)(=O)N(C)CCOc1cnccc1-c1[nH]c2cccnc2c1-c1cc(F)cc(F)c1 [Example 68, N-[2-({4-[3-(3,5-difluorophenyl)-1H-pyrrolo[3,2-b]pyridin-2-yl]pyridin-3-yl}oxy)ethyl]-N-methylethenesulfonamide]
[1]
  IC50: 8.76 nM
[2]
  IC50: 296 nM
[3]
  IC50: 3.64 nM

## C=CS(=O)(=O)N(C)CCOc1cnccc1-c1[nH]c2cccnc2c1-c1cccc(OC)c1 [Example 69, N-[2-({4-[3-(3-methoxyphenyl)-1H-pyrrolo[3,2-b]pyridin-2-yl]pyridin-3-yl}oxy)ethyl]-N-methylethenesulfonamide]
[1]
  IC50: 8.7 nM
[2]
  IC50: 287 nM
[3]
  IC50: 3.65 nM

## C=CS(=O)(=O)N(C)CCOc1cnccc1-c1[nH]c2cccnc2c1-c1cccc(C(C)C)c1 [Example 70, N-methyl-N-{2-[(4-{3-[3-(propan-2-yl)phenyl]-1H-pyrrolo[3,2-b]pyridin-2-yl}pyridin-3-yl)oxy]ethyl}ethenesulfonamide]
[1]
  IC50: 46.6 nM
[2]
  IC50: 749 nM
[3]
  IC50: 5.33 nM

## C=CS(=O)(=O)N(C)CCOc1cnccc1-c1[nH]c2cccnc2c1-c1cc(Cl)ccc1Cl [Example 71, N-[2-({4-[3-(2,5-dichlorophenyl)-1H-pyrrolo[3,2-b]pyridin-2-yl]pyridin-3-yl}oxy)ethyl]-N-methylethenesulfonamide]
[1]
  IC50: 8.59 nM
[2]
  IC50: 404 nM
[3]
  IC50: 5.37 nM

## C=CS(=O)(=O)N(C)CCOc1cnccc1-c1[nH]c2cccnc2c1-c1ccccc1CC [Example 72, N-[2-({4-[3-(2-ethylphenyl)-1H-pyrrolo[3,2-b]pyridin-2-yl]pyridin-3-yl}oxy)ethyl]-N-methylethenesulfonamide]
[1]
  IC50: 78.8 nM
[2]
  IC50: 463 nM
[3]
  IC50: 5.82 nM

## C=CS(=O)(=O)N(C)CCOc1cnccc1-c1[nH]c2cccnc2c1-c1cc(OC)ccc1F [Example 73, N-[2-({4-[3-(2-fluoro-5-methoxyphenyl)-1H-pyrrolo[3,2-b]pyridin-2-yl]pyridin-3-yl}oxy)ethyl]-N-methylethenesulfonamide]
[1]
  IC50: 27.9 nM
[2]
  IC50: 555 nM
[3]
  IC50: 8.7 nM

## C=CS(=O)(=O)N(C)CCOc1cnccc1-c1[nH]c2cccnc2c1-c1cccc(OC(F)(F)F)c1 [Example 74, N-methyl-N-{2-[(4-{3-[3-(trifluoromethoxy)phenyl]-1H-pyrrolo[3,2-b]pyridin-2-yl}pyridin-3-yl)oxy]ethyl}ethenesulfonamide]
[1]
  IC50: 58.8 nM
[2]
  IC50: 964 nM
[3]
  IC50: 11.2 nM

## C=CS(=O)(=O)N(C)CCOc1cnccc1-c1[nH]c2cccnc2c1-c1cc(Cl)cc(Cl)c1 [Example 75, N-[2-({4-[3-(3,5-dichlorophenyl)-1H-pyrrolo[3,2-b]pyridin-2-yl]pyridin-3-yl}oxy)ethyl]-N-methylethenesulfonamide]
[1]
  IC50: 26.1 nM
[2]
  IC50: 2020 nM
[3]
  IC50: 45 nM

## C=CC(=O)N1CCC[C@H]1COc1cnccc1-c1[nH]c2cccnc2c1-c1cc(C(F)(F)F)ccc1F [Example 76, 1-[(2S)-2-{[(4-{3-[2-fluoro-5-(trifluoromethyl)phenyl]-1H-pyrrolo[3,2-b]pyridin-2-yl}pyridin-3-yl)oxy]methyl}pyrrolidin-1-yl]prop-2-en-1-one]
[1]
  IC50: 9.46 nM
[2]
  IC50: 97.9 nM
[3]
  IC50: 2.78 nM

## C=CC(=O)N1CCC[C@H]1COc1cnccc1-c1[nH]c2cccnc2c1-c1cc(C)ccc1F [Example 77, 1-{(2S)-2-[({4-[3-(2-fluoro-5-methylphenyl)-1H-pyrrolo[3,2-b]pyridin-2-yl]pyridin-3-yl}oxy)methyl]pyrrolidin-1-yl}prop-2-en-1-one]
[1]
  IC50: 1.97 nM
[2]
  IC50: 27.4 nM
[3]
  IC50: 0.853 nM

## C=CC(=O)N1CCC[C@H]1COc1cnccc1-c1[nH]c2cccnc2c1-c1cccc(CC)c1 [Example 78, 1-{(2S)-2-[({4-[3-(3-ethylphenyl)-1H-pyrrolo[3,2-b]pyridin-2-yl]pyridin-3-yl}oxy)methyl]pyrrolidin-1-yl}prop-2-en-1-one]
[1]
  IC50: 2.92 nM
[2]
  IC50: 80.2 nM
[3]
  IC50: 1.04 nM

## C=CC(=O)N1CCC[C@H]1COc1cnccc1-c1[nH]c2cccnc2c1-c1ccc2cccnc2c1 [Example 79, 1-{(2S)-2-[({4-[3-(quinolin-7-yl)-1H-pyrrolo[3,2-b]pyridin-2-yl]pyridin-3-yl}oxy)methyl]pyrrolidin-1-yl}prop-2-en-1-one]
[1]
  IC50: 9.38 nM
[2]
  IC50: 367 nM
[3]
  IC50: 4.41 nM

## C=CC(=O)N1CCC[C@H]1COc1cnccc1-c1[nH]c2cccnc2c1-c1ccc2ccccc2c1 [Example 80, 1-{(2S)-2-[({4-[3-(naphthalen-2-yl)-1H-pyrrolo[3,2-b]pyridin-2-yl]pyridin-3-yl}oxy)methyl]pyrrolidin-1-yl}prop-2-en-1-one]
[1]
  IC50: 1.86 nM
[2]
  IC50: 162 nM
[3]
  IC50: 0.583 nM

## C=CC(=O)N1CCC[C@H]1COc1cnccc1-c1[nH]c2cccnc2c1-c1ccc2ccsc2c1 [Example 81, 1-{(2S)-2-[({4-[3-(1-benzothiophen-6-yl)-1H-pyrrolo[3,2-b]pyridin-2-yl]pyridin-3-yl}oxy)methyl]pyrrolidin-1-yl}prop-2-en-1-one]
[1]
  IC50: 1.29 nM
[2]
  IC50: 57.4 nM
[3]
  IC50: 0.391 nM

## C=CC(=O)N1CCC[C@H]1COc1cnccc1-c1[nH]c2cccnc2c1-c1ccc2ccoc2c1 [Example 82, 1-{(2S)-2-[({4-[3-(1-benzofuran-6-yl)-1H-pyrrolo[3,2-b]pyridin-2-yl]pyridin-3-yl}oxy)methyl]pyrrolidin-1-yl}prop-2-en-1-one]
[1]
  IC50: 0.837 nM
[2]
  IC50: 36.8 nM
[3]
  IC50: 0.267 nM

## C=CC(=O)N1CCC[C@H]1COc1cnccc1-c1[nH]c2cccnc2c1-c1cccc(OC)c1 [Example 83, 1-{(2S)-2-[({4-[3-(3-methoxyphenyl)-1H-pyrrolo[3,2-b]pyridin-2-yl]pyridin-3-yl}oxy)methyl]pyrrolidin-1-yl}prop-2-en-1-one]
[1]
  IC50: 7.63 nM
[2]
  IC50: 132 nM
[3]
  IC50: 2.09 nM

## C=CC(=O)N1CCC[C@H]1COc1cnccc1-c1[nH]c2cccnc2c1-c1ccc2cc[nH]c2c1 [Example 84, 1-{(2S)-2-[({4-[3-(1H-indol-6-yl)-1H-pyrrolo[3,2-b]pyridin-2-yl]pyridin-3-yl}oxy)methyl]pyrrolidin-1-yl}prop-2-en-1-one]
[1]
  IC50: 154 nM
[2]
  IC50: 3560 nM
[3]
  IC50: 32.5 nM

## C=CC(=O)N1CCC[C@H]1COc1cnccc1-c1[nH]c2cccnc2c1-c1cccc(Cl)c1Cl [Example 85, 1-{(2S)-2-[({4-[3-(2,3-dichlorophenyl)-1H-pyrrolo[3,2-b]pyridin-2-yl]pyridin-3-yl}oxy)methyl]pyrrolidin-1-yl}prop-2-en-1-one]
[1]
  IC50: 3.64 nM
[2]
  IC50: 55.7 nM
[3]
  IC50: 0.5 nM
